Reference: patent US6756368B1, “Use of cobalt chelates for treating or preventing virus infection” (The Trustees of Columbia University in the City of New York, priority 1999, dated 2004)

Key:
[1] = system: HSV; details: cited from earlier work
[2] = system: HSV-1; experiment: Fractionation and in situ localization of virus DNA; type: cell-based, HSV-1 Glasgow strain 17; details: 100 μg/ml cycloheximide, 1 hpi

Compound	HSV attachment / virus binding [1]	cell-to-cell spread of HSV [1]	virus DNA associated with the nuclear fraction versus no drug control [2]	step inhibited instead of binding [1]
Cc1ccc(C(=O)Nc2ccc(S(=O)(=O)O)c3cc(S(=O)(=O)O)cc(S(=O)(=O)O)c23)cc1NC(=O)c1cccc(NC(=O)Nc2cccc(C(=O)Nc3cc(C(=O)Nc4ccc(S(=O)(=O)O)c5cc(S(=O)(=O)O)cc(S(=O)(=O)O)c45)ccc3C)c2)c1 [Sumarin]	able to block HSV attachment	able to inhibit cell-to-cell spread	–	–
C[C@@H]1C[C@@H]([C@H](O)CC2CC(=O)NC(=O)C2)C(=O)[C@@H](C)C1 [cycloheximide, reference compound]	–	–	no effect on the amount of virus DNA associated with the nuclear fraction	–
CCCCCCCCCCCCCCCCCCCCCCO [n-docosanol]	does not inhibit virus binding	–	–	fusion of the virus envelope with the cell's plasma membrane
Heparin	can block attachment	–	–	–
